In the NIST ThermoML archive (doi:10.1021/acs.jced.5b00679):
± gives the expanded uncertainty stated by the source.

Key:
[1] = Crystal; DTA
[2] = Molar enthalpy of transition or fusion; settings: Crystal; DSC

Row | SMILES | Normal melting temperature [1] [°C] | Molar enthalpy of transition or fusion [2] [kcal/mol]
1 | c1ccc2c3c([nH]c2c1)CCCC3 [2,3,4,9-tetrahydro-1H-carbazole] | 118.2 ± 2 | 4.27 ± 0.1
2 | CC(C)n1c2ccccc2c2ccccc21 [9-(1-methylethyl)carbazole] | 120.8 ± 2 | 4.36 ± 0.184
3 | CCn1c2c(c3c1CCCC3)CCCC2 [9-ethyl-2,3,4,5,6,7,8,9-octahydro-1H-carbazole] | 43 ± 2 | 4.92 ± 0.139
4 | CCn1c2c(c3ccccc31)CCCC2 [9-ethyl-2,3,4,9-tetrahydrocarbazole] | 9.2 ± 2 | 2.97 ± 0.0765
5 | CCn1c2ccccc2c2ccccc21 [9-ethylcarbazole] | 69.2 ± 2 | 3.96 ± 0.12
6 | Cn1c2ccccc2c2ccccc21 [9-methyl-9H-carbazole] | 88 ± 2 | 3.93 ± 0.136
7 | c1ccc2c(c1)[nH]c1ccccc12 [9H-carbazole] | 244.0 ± 2 | 6.62 ± 0.201
8 | CCCCn1c2ccccc2c2ccccc21 [N-butyl-9H-carbazole] | 57.5 ± 2 | 5.45 ± 0.136
9 | CCCn1c2ccccc2c2ccccc21 [N-propyl-9H-carbazole] | 47.2 ± 2 | 4.68 ± 0.117
